ChEMBL document CHEMBL4507268 (2021)

How the values were obtained:
Settings in all cases: Compound concentration 1000.0 nM
[1] = target: Serine/threonine-protein kinase NIM1 (Homo sapiens) (UniProt Q8IY84)
[2] = target: Aurora kinase B (Homo sapiens) (UniProt Q96GD4)
[3] = target: T1, Tyrosine-protein kinase receptor TYRO3 (Homo sapiens) (UniProt Q06418)
T1 sequence (whole entry): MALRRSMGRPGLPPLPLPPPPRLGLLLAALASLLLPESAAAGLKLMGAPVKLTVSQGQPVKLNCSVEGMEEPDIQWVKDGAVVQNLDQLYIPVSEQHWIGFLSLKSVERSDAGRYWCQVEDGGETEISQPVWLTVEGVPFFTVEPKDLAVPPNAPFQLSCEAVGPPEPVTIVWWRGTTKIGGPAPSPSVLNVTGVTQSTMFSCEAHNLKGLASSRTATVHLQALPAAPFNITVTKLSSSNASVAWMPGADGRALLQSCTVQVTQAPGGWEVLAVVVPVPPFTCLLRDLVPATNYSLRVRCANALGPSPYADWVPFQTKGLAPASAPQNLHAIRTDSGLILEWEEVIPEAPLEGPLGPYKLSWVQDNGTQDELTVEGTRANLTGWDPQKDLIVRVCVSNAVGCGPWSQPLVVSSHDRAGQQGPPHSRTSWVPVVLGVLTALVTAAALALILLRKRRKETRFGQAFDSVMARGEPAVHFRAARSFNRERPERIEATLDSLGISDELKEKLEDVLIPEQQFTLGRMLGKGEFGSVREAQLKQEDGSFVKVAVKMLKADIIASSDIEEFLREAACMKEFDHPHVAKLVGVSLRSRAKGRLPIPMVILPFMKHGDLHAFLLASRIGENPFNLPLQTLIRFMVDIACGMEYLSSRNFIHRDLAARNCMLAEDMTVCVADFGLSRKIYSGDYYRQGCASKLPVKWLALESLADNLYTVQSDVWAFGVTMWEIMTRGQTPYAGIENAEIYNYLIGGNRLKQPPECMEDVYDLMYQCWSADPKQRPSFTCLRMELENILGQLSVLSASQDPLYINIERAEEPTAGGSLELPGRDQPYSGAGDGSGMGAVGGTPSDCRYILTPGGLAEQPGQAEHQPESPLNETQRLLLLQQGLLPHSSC

[4] = target: Serine/threonine-protein kinase mTOR (Homo sapiens) (UniProt P42345)
[5] = target: Serine/threonine-protein kinase Nek10 (Homo sapiens) (UniProt Q6ZWH5)
[6] = target: Mitogen-activated protein kinase kinase kinase 9 (Homo sapiens) (UniProt P80192)
[7] = target: Mitogen-activated protein kinase 8 (Homo sapiens) (UniProt P45983)
[8] = target: Serine/threonine-protein kinase 10 (Homo sapiens) (UniProt O94804)
[9] = target: Serine/threonine-protein kinase 33 (Homo sapiens) (UniProt Q9BYT3)
[10] = target: High affinity nerve growth factor receptor (Homo sapiens) (UniProt P04629)
[11] = target: 5'-AMP-activated protein kinase catalytic subunit alpha-1 (Homo sapiens) (UniProt Q13131)
[12] = target: Calcium/calmodulin-dependent protein kinase type 1G (Homo sapiens) (UniProt Q96NX5)
[13] = target: Tyrosine-protein kinase BTK (Homo sapiens) (UniProt Q06187)
[14] = tested on: Epidermal growth factor receptor (Homo sapiens), P00533 [L861Q]
[15] = target: Calcium/calmodulin-dependent protein kinase type II subunit alpha (Homo sapiens) (UniProt Q9UQM7)
[16] = target: Non-receptor tyrosine-protein kinase TYK2 (Homo sapiens) (UniProt P29597)
[17] = target: Tyrosine-protein kinase Lck (Homo sapiens) (UniProt P06239)
[18] = target: cAMP-dependent protein kinase catalytic subunit alpha (Homo sapiens) (UniProt P17612)
[19] = tested on: Epidermal growth factor receptor (Homo sapiens), P00533 [G719S]
[20] = target: T2, Mitogen-activated protein kinase kinase kinase 3 (Homo sapiens) (UniProt Q99759)
T2 sequence (whole entry): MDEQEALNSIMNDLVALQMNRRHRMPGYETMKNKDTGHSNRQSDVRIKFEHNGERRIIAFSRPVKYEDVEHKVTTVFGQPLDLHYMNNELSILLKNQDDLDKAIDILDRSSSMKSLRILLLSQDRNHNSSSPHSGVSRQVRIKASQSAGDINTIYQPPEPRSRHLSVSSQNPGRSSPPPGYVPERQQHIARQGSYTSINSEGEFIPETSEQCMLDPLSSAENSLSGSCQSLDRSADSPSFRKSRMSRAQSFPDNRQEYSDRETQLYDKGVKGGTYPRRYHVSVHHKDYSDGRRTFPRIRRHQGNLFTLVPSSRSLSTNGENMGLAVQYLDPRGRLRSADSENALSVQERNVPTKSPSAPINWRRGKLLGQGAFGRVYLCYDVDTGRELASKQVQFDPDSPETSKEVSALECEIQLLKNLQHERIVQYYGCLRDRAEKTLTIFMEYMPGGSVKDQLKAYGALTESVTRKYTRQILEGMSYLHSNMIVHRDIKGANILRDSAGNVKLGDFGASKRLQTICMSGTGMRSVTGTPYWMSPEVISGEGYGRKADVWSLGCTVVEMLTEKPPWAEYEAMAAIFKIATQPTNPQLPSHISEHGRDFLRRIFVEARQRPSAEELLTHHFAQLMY

[21] = tested on: Receptor-type tyrosine-protein kinase FLT3 (Homo sapiens), P36888 [D835H]

Measured: residual activity

Sequence of Calcium/calmodulin-dependent protein kinase type II subunit alpha (Homo sapiens) (Q9UQM7 whole entry): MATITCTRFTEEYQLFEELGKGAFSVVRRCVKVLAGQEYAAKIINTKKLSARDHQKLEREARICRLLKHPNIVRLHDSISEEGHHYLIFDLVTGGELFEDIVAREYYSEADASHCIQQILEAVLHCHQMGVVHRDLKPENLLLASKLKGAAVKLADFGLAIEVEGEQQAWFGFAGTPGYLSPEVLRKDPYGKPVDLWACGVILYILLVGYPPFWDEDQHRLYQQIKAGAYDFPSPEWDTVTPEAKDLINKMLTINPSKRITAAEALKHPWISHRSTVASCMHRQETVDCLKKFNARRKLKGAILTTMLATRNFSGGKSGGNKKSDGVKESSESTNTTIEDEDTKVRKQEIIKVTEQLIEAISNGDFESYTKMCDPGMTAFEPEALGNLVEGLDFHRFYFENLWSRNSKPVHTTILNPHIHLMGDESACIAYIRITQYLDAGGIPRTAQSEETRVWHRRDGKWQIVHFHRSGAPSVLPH
Sequence of Calcium/calmodulin-dependent protein kinase type 1G (Homo sapiens) (Q96NX5 whole entry): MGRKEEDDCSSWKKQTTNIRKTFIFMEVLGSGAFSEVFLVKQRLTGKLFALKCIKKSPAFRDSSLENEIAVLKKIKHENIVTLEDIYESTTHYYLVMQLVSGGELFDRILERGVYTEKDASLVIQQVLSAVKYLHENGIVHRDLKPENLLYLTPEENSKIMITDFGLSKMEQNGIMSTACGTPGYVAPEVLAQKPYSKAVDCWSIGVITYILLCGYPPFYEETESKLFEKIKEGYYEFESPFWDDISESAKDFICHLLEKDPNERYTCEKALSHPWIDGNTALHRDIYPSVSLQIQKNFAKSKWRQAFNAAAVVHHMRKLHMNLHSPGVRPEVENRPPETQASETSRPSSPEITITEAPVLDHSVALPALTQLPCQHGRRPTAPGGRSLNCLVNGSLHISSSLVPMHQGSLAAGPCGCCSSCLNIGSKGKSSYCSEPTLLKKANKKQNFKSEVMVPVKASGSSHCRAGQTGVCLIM
Sequence of Serine/threonine-protein kinase 10 (Homo sapiens) (O94804 whole entry, looked up): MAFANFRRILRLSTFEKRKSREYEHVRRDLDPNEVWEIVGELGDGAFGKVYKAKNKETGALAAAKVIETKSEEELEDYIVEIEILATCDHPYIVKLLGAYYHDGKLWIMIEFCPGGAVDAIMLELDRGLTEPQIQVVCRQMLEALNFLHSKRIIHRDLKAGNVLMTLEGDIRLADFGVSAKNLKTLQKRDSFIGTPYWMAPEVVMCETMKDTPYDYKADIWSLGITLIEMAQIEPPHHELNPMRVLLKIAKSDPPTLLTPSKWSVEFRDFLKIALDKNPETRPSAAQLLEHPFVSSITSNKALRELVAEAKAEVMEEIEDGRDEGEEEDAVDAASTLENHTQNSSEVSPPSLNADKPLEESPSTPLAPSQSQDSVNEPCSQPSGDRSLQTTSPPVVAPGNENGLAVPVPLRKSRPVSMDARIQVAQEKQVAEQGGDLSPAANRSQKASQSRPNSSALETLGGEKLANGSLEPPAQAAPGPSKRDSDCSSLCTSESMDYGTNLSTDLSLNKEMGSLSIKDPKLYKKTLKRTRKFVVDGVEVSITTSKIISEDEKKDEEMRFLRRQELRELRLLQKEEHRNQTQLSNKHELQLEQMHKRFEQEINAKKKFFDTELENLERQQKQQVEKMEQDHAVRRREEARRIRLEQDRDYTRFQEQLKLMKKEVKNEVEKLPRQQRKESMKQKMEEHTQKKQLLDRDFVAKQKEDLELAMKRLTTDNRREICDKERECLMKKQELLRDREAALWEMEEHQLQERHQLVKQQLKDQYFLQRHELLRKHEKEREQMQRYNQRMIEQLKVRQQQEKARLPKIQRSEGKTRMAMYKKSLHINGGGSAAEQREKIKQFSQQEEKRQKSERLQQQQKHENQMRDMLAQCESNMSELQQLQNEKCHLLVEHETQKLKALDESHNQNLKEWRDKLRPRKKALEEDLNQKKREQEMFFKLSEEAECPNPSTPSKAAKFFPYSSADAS
Sequence of Mitogen-activated protein kinase 8 (Homo sapiens) (P45983 whole entry): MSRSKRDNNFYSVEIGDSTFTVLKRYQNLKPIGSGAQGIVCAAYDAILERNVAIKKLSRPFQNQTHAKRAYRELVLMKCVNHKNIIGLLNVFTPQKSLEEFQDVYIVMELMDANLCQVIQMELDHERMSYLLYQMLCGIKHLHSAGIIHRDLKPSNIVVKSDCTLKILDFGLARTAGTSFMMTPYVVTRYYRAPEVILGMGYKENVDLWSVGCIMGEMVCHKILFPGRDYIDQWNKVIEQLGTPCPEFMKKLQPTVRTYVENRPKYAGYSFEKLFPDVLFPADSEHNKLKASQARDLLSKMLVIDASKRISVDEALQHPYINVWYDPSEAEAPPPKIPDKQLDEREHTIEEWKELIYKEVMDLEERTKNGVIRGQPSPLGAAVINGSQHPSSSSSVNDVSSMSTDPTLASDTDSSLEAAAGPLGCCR
Sequence of Serine/threonine-protein kinase 33 (Homo sapiens) (Q9BYT3 whole entry, looked up): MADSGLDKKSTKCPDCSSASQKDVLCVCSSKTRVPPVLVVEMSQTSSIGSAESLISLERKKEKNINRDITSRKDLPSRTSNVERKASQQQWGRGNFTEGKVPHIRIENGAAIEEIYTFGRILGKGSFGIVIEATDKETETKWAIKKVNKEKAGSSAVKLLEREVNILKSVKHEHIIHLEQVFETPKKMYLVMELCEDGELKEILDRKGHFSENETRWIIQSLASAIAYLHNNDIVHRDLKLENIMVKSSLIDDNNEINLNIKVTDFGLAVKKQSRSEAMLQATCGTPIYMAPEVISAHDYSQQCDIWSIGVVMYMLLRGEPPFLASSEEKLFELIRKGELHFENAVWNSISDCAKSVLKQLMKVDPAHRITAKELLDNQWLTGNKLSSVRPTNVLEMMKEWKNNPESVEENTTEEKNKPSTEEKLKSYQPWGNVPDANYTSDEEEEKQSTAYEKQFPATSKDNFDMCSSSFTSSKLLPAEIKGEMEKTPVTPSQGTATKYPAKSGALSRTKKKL
Sequence of Serine/threonine-protein kinase Nek10 (Homo sapiens) (Q6ZWH5 whole entry): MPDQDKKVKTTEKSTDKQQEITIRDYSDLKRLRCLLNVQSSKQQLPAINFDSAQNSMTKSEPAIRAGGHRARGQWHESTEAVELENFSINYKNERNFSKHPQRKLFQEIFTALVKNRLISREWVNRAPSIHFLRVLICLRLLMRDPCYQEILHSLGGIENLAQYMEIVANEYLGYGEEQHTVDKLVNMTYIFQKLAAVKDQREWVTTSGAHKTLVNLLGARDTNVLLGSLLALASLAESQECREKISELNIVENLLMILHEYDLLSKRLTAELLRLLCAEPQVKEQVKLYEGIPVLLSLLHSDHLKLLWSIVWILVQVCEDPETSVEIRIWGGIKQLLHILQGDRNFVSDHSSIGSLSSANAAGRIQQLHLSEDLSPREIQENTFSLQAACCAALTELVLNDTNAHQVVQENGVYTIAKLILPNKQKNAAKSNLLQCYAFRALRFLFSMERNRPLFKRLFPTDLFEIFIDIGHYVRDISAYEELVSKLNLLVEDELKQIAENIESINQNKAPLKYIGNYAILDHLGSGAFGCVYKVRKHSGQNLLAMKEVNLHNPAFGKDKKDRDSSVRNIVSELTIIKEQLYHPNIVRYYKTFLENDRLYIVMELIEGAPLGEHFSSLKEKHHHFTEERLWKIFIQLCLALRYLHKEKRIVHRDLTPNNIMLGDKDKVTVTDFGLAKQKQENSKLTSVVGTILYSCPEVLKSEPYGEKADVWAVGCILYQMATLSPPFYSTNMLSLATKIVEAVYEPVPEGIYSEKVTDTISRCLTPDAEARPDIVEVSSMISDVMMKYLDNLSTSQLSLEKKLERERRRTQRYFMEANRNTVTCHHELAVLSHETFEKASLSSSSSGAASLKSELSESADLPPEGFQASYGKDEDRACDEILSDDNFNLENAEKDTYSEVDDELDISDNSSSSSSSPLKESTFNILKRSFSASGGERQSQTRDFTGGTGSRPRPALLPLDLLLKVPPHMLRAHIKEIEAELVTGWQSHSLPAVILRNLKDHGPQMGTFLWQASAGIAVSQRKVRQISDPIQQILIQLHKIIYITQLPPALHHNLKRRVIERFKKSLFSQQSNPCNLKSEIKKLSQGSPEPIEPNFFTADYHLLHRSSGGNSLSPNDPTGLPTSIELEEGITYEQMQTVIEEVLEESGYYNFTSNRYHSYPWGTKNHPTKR
Sequence of Tyrosine-protein kinase Lck (Homo sapiens) (P06239 2-509 limits assumed): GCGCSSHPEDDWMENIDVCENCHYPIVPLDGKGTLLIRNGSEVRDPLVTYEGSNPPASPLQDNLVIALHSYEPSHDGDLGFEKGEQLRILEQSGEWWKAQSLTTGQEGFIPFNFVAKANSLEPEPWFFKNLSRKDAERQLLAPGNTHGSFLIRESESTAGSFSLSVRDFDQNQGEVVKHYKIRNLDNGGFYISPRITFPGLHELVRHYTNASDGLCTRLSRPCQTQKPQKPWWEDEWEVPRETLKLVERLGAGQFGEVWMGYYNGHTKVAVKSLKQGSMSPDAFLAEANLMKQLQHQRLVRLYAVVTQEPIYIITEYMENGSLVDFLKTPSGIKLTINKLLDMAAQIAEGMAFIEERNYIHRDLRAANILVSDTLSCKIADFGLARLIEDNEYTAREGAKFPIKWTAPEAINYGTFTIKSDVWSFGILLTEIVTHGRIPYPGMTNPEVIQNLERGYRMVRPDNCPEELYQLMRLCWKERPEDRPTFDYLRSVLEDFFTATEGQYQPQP
Sequence of Aurora kinase B (Homo sapiens) (Q96GD4 whole entry): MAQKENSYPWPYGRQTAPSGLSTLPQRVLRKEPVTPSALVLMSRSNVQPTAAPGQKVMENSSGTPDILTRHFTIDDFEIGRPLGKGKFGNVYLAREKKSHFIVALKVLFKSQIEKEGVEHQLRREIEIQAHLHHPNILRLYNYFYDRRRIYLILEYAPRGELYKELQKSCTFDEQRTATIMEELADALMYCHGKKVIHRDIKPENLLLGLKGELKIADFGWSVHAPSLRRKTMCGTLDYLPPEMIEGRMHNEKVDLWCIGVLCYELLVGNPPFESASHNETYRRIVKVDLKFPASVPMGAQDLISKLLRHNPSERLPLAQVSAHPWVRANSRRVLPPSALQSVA

Cc1nc(C2CCN(C(=O)c3ccc(OC(F)(F)F)cc3N)CC2)c2ncc(N3CCN(C)CC3)cc2n1 [BAY-693]
inactive: [1] 89% | [2] 88% | [3] 100% | [4] 78% | [5] 100% | [6] 97% | [7] 98% | [8] 96% | [9] 100% | [10] 85% | [11] 98% | [12] 100% | [13] 87% | [14] 100% | [15] 93% | [16] 100% | [17] 100% | [18] 100% | [19] 100% | [20] 92% | [21] 69%

CN1CCN(c2cnc3c(C4CCN(C(=O)c5ccc(OC(F)(F)F)cc5N)CC4)ncnc3c2)CC1 [BAY-885]
inactive: [1] 100% | [2] 90% | [3] 100% | [4] 78% | [5] 100% | [6] 100% | [7] 97% | [8] 52% | [9] 99% | [10] 100% | [11] 87% | [12] 100% | [13] 100% | [14] 100% | [15] 69% | [16] 93% | [17] 100% | [18] 100% | [19] 100% | [20] 94% | [21] 75%
